Measurements reported in patent US4879114A, “Lipids from omentum and methods for cosmetic use” (Angio-Medical Corporation, priority 1985, dated 1989).

Test system: skin (back) of subjects
Conditions: in vivo

Substance: petrolatum
- challenge patch reading: dermal contact irritation or sensitization: negative at each reading without any evidence of dermal contact irritation or sensitization
- induction phase patch reading: negative at each reading
